Source: ChEMBL document CHEMBL5465560, “Selectivity Literature for EUbOPEN Chemogenomic Library” (2024)

Legend:
[1] = biological target: T1, Activin receptor type-1 (Homo sapiens) (UniProt Q04771); test: Selectivity interaction (KinomeScan (DiscoverX)) EUB0001049a ACVR1; conditions: at 1 µM
T1 sequence (whole entry): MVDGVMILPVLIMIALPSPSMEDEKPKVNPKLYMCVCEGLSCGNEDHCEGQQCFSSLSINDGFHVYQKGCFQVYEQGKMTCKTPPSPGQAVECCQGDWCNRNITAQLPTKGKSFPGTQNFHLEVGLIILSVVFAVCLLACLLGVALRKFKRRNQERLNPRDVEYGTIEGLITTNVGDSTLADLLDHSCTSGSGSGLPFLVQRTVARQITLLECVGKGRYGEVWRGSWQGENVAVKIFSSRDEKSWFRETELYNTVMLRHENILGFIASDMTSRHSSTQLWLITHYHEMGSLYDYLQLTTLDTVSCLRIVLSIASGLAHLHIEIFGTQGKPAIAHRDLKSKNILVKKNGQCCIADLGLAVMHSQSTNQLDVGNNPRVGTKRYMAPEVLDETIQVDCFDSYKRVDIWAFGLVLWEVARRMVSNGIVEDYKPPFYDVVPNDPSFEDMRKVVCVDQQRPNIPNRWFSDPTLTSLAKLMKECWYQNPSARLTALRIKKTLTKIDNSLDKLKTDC

[2] = biological target: T2, Alpha-2A adrenergic receptor (Homo sapiens) (UniProt P08913); test: Selectivity interaction (Eurofins CEREP Diversity Profile (receptors and ion channels)) EUB0000279b ADRA2A; conditions: at 10 µM
T2 sequence (whole entry): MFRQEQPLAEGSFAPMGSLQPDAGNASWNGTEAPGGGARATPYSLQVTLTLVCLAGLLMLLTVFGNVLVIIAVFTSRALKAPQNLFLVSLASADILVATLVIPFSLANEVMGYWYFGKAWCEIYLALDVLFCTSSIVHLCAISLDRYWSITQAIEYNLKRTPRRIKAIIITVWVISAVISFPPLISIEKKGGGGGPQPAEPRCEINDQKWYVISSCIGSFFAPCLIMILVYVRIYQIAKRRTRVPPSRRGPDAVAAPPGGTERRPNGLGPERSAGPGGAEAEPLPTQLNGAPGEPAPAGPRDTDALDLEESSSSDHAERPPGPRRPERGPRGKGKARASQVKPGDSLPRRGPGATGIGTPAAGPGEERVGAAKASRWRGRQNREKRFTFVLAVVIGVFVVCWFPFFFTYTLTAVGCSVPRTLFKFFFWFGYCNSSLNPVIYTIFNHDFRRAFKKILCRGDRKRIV

[3] = biological target: Citron Rho-interacting kinase (Homo sapiens) (UniProt O14578); conditions: at 10 µM
[4] = biological target: Microtubule-associated serine/threonine-protein kinase 3 (Homo sapiens) (UniProt O60307); test: Selectivity interaction (ActivX KiNativ screen (kinase selectivity in THP-1 cell lysates)) EUB0000639a MAST3; assay type: subcellular; conditions: lysate
[5] = biological target: Tyrosine-protein kinase JAK2 (Homo sapiens, UniProt O60674); test: Selectivity interaction (KinomeScan (DiscoverX)) EUB0000655a JAK2; conditions: at 10 µM
[6] = biological target: Mitogen-activated protein kinase kinase kinase kinase 1 (Homo sapiens) (UniProt Q92918); test: Selectivity interaction (KinomeScan (DiscoverX)) EUB0000655a MAP4K1; conditions: at 10 µM
[7] = biological target: T3, Serine/threonine-protein kinase Nek1 (Homo sapiens) (UniProt Q96PY6); test: Selectivity interaction (SelectScreen profiling (Invitrogen)) EUB0000607a NEK1; conditions: at 2 µM
T3 sequence (whole entry): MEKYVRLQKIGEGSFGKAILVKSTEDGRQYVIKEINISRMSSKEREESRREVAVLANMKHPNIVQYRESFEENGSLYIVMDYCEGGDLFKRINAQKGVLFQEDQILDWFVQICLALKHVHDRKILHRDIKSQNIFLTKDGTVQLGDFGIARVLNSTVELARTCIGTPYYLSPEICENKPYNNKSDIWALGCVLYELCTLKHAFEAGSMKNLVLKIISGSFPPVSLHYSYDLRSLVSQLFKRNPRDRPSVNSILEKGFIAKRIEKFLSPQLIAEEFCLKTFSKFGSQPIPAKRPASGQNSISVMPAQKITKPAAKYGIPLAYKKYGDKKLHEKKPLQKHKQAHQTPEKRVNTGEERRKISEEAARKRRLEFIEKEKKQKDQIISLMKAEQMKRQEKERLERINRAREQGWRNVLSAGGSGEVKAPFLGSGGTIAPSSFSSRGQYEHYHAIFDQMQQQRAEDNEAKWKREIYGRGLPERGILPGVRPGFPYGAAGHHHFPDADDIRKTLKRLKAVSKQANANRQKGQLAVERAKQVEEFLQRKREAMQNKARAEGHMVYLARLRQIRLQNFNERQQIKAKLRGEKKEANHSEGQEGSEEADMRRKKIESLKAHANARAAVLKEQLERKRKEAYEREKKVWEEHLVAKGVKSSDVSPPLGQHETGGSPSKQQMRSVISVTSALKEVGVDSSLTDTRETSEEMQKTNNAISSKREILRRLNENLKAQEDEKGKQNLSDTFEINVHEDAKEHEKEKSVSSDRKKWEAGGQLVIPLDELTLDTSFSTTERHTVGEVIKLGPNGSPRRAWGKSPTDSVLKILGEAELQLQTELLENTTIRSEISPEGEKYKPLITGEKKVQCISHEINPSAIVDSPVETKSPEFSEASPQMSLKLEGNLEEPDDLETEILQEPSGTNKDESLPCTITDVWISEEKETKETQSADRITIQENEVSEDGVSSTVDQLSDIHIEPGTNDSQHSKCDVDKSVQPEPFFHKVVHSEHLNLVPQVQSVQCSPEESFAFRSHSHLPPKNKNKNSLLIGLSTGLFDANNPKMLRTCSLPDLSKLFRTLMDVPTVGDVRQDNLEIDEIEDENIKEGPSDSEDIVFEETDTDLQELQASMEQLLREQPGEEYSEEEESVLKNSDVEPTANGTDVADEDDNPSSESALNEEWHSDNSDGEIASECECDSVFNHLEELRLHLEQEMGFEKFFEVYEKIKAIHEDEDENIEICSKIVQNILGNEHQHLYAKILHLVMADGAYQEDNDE

Sequence of Microtubule-associated serine/threonine-protein kinase 3 (Homo sapiens) (O60307 whole entry): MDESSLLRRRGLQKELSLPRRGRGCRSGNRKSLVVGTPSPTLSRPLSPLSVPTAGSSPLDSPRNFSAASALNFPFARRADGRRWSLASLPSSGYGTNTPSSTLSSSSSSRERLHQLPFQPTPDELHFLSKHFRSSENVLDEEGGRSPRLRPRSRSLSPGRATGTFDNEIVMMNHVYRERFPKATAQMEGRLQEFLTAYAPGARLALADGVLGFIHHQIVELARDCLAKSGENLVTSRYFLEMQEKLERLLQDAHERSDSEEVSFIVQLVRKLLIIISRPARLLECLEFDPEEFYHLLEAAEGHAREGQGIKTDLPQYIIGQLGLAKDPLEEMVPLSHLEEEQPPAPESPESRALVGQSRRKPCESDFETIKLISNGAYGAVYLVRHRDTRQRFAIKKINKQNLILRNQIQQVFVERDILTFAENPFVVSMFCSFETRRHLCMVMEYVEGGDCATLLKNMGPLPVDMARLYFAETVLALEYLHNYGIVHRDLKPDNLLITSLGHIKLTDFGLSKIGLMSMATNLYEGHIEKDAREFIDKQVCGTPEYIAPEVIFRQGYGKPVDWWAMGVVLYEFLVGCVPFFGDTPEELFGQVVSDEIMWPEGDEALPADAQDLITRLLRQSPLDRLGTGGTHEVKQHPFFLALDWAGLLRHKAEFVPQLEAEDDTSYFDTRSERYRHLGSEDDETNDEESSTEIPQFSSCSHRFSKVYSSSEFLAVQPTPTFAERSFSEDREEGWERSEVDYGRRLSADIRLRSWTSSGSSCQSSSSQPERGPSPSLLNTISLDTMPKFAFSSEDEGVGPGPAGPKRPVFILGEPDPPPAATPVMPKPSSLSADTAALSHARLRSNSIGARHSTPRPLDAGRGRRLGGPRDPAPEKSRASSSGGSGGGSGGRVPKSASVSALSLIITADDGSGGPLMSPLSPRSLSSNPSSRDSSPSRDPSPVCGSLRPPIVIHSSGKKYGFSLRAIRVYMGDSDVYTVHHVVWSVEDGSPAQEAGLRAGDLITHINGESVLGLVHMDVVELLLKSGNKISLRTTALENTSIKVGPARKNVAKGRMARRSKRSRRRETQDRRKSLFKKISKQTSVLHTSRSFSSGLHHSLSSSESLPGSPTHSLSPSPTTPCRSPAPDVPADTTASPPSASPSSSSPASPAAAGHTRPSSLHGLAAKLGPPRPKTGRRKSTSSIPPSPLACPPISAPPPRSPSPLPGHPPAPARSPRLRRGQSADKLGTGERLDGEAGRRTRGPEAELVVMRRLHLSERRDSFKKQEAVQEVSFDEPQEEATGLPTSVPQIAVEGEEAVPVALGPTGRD
Sequence of Tyrosine-protein kinase JAK2 (O60674 whole entry): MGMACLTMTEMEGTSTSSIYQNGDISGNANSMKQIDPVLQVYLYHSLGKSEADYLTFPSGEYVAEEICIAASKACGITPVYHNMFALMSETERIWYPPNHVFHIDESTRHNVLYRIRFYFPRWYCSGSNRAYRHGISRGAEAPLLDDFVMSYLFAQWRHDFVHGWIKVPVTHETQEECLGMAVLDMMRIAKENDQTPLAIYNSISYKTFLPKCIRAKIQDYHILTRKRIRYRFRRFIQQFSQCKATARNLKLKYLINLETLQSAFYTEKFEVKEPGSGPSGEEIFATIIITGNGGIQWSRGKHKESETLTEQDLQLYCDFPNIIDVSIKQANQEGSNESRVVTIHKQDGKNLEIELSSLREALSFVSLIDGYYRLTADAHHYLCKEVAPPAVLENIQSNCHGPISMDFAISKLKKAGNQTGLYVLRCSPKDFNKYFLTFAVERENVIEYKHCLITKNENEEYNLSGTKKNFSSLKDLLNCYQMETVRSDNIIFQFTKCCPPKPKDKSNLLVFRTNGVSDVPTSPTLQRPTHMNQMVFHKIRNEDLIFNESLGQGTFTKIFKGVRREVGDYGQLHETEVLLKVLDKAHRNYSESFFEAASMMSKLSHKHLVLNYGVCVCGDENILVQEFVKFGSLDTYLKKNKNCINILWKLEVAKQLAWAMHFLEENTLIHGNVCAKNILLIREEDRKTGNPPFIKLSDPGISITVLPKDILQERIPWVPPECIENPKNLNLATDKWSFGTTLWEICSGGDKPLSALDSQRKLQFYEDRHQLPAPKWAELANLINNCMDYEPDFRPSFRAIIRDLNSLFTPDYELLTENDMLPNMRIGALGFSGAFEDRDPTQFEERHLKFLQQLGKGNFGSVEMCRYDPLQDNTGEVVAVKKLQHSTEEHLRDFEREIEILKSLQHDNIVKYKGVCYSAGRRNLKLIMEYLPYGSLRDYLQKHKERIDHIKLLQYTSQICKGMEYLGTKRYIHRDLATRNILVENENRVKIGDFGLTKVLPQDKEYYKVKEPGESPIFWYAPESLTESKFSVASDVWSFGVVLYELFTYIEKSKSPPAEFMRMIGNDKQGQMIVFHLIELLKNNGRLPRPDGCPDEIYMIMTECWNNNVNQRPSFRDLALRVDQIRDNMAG
Sequence of Mitogen-activated protein kinase kinase kinase kinase 1 (Homo sapiens) (Q92918 whole entry, looked up): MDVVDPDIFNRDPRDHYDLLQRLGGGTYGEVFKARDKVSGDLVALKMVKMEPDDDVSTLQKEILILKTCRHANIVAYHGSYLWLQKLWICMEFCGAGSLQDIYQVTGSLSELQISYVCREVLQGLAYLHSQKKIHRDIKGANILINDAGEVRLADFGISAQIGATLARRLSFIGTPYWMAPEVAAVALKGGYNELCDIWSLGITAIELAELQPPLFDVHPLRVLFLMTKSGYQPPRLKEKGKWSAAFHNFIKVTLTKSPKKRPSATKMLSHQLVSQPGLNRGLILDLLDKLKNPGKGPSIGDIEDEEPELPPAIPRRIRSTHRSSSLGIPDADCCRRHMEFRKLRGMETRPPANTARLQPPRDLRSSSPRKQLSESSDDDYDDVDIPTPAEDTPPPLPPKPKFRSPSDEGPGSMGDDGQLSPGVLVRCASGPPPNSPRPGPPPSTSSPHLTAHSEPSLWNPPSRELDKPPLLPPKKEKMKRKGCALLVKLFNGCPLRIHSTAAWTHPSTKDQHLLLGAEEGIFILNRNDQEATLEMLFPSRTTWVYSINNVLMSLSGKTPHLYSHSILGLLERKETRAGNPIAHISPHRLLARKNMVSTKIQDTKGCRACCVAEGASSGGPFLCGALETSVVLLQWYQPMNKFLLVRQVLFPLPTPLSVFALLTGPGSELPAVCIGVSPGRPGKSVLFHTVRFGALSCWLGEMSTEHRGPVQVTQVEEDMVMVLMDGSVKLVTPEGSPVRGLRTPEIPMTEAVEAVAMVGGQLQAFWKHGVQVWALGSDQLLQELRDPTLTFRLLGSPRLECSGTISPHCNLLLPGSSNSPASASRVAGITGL

**Q.** Which % of control [1] does the source give for `COc1cc(Nc2nc(C)cc(-c3cnn4nc(OC)ccc34)n2)cc(C(F)(F)F)c1` here?
**A.** The % of control was 78%.

**Q.** How did the % of control [2] turn out when `CC(=O)c1cc(-c2ccccc2OCC2CC2)c2ncccn12` was run?
**A.** Its % of control is 100%.

**Q.** For `CCN(CC)CCCCNc1ncc2cc(-c3cc(OC)cc(OC)c3)c(NC(=O)NC(C)(C)C)nc2n1`, which % of control [3] is on record?
**A.** The % of control was 100%.

**Q.** `CC[C@@H]1[C@H](F)C(=O)N[C@@H]1COc1nccc2cc(C(N)=O)c(OC)cc12` [ZIMLOVISERTIB] was tested. Which % of inhibition ([4]; at 0.01 µM) did it give?
**A.** Its % of inhibition is 11.4%.

**Q.** What about the % of inhibition ([4]; at 0.04 µM) of the same molecule?
**A.** The % of inhibition was 9.3%.

**Q.** And the % of inhibition ([4]; at 0.2 µM)?
**A.** The % of inhibition was 2.6%.

**Q.** What about the % of inhibition ([4]; at 1 µM) of the same molecule?
**A.** Its % of inhibition is 4.8%.

**Q.** What about the % of inhibition ([4]; at 5 µM) of the same molecule?
**A.** The % of inhibition was 32.1%.

**Q.** Which results are given for `CN(C)CCOc1ccc(-c2nc(-c3ccncc3)c(-c3ccc4c(c3)CC/C4=N\O)[nH]2)cc1`?
**A.** % of control [5]: 70%; % of control [6]: 97%

**Q.** Which % of inhibition [7] does the source give for `CNC(=O)Nc1ccc(-c2nc(N3CC4CCC(C3)O4)c3cnn(C4CCC5(CC4)OCCO5)c3n2)cc1` here?
**A.** The % of inhibition was 7%.
